The results in this text go back to patent publication US20260108615A1, “SELF-ASSEMBLED MUCOADHESIVE BIOPOLYMER PARTICLE RELEASE SYSTEM AND PREPARATION METHOD THEREOF” (SZEGEDI TUDOMÁNYEGYETEM, priority 2021, published 2026).

What all share (assay type): physicochemical
Data set [1] can be described thus: in vitro DOX release through cellulose membrane into PBS buffer. The method, then:
The DOX release was measured according to the following: the in vitro experiments of the DOX releasing were performed using a cellulose membrane (Sigma-Aldrich, avg. flat width 10 mm (0.4 in.)). The released DOX amount from the bare and conjugated form was spectrophotometrically measured by monitoring the change in the intensity of the characteristic absorbance peak of DOX at λ=481 nm. DOX concentration is directly proportional to the maximal absorption values estimated at 481 nm [CDOX (mg/ml) (A at 481 nm)/18.836; R^2=0.996], according to the calibration curve previously determined within the range of 0-0.066 mg/ml. Solid powder of pure drug and conjugated form (corresponding to 0.045 mg/ml of DOX) were inserted in a cellulose membrane that was closed and dropped into 20 ml of a PBS buffer solution with pH=7.4 (37° C.; 0.9 wt % NaCl content). 3 ml of the aqueous solution was pulled from the release media at selected interval times and DOX concentration was measured. The release profiles of DOX released from different forms are shown in FIG. 14a in percent form and FIG. 14b in concentration form, releasing from the bare DOX was too fast a process with a maximum releasing percent of 78%. […] According to Table 2, releasing from the bare DOX data were fitted with the Higuchi model that describes the drug release a diffusion process based on Fick's law which is square root time-dependent, assumes the diffusivity of the drug is constant.

Data set [2] is described as follows: in-vitro drug-releasing profile of KETO. To be noted: FIG. 17.
Data set [3] is described as follows: in-vitro drug-releasing profile of HBA. To be noted: FIG. 18.

As for `COc1cccc2c1C(=O)c1c(O)c3c(c(O)c1C2=O)C[C@@](O)(C(=O)CO)C[C@@H]3O[C@H]1C[C@H](N)[C@H](O)[C@H](C)O1` [Pure DOX, doxorubicin], the “concentration of DOX in PBS buffer solution after one day (decomposition)” value in data set [1] (PBS at 37° C., after one day of release) is “continuously decreased”. For the same molecule, the maximum releasing percent in data set [1] (PBS pH=7.4, 37° C., 0.9 wt % NaCl, cellulose membrane) is recorded as 78%. In data set [1] (fit of DOX release data), the First-order model k amounted to 0.2689, the Higuchi model k was found to be 36.808, the Hixson-Crowell model k turned out to be 0.0063 and the Korsmeyer-Peppas model k worked out at 26.18. Besides, in data set [1] (fit of DOX release data), the “Korsmeyer-Peppas model n (release exponent)” value is on record as 0.763 and the Zero-order model k was determined as 13.11.

Regarding `CC(C(=O)O)c1cccc(C(=O)c2ccccc2)c1` (stereo not shown) [bare KETO, ketoprofen], the KETO releasing process result in data set [2] was “fast releasing process for the first 5 h”.

On to `OCc1ccc(O)cc1` [Bare HBA, 4-hydroxybenzyl alcohol], for which, in data set [3], the HBA releasing process result is on record as “very rapid release process for the first 3 h”.
